{"source": "the kinase profiling compilation of Christmann-Franck et al. (2016)", "experiment_in_all_cases": "KINOMEscan competition binding", "conditions_in_all_cases": "compound 2.0 µM", "key": {"[1]": {"biological_target": "MAP3K4 (human) (UniProt Q9Y6R4)"}, "[2]": {"biological_target": "MKNK2 (human) (UniProt Q9HBH9)"}, "[3]": {"biological_target": "MAP3K5 (human) (UniProt Q99683)"}, "[4]": {"biological_target": "HIPK3 (human) (UniProt Q9H422)"}, "[5]": {"biological_target": "NUAK1 (human) (UniProt O60285)"}, "[6]": {"biological_target": "PKMYT1 (human) (UniProt Q99640)"}, "[7]": {"test_system": "RET (human), P07949 [V804M]", "sequence (P07949 whole entry V804M, looked up)": "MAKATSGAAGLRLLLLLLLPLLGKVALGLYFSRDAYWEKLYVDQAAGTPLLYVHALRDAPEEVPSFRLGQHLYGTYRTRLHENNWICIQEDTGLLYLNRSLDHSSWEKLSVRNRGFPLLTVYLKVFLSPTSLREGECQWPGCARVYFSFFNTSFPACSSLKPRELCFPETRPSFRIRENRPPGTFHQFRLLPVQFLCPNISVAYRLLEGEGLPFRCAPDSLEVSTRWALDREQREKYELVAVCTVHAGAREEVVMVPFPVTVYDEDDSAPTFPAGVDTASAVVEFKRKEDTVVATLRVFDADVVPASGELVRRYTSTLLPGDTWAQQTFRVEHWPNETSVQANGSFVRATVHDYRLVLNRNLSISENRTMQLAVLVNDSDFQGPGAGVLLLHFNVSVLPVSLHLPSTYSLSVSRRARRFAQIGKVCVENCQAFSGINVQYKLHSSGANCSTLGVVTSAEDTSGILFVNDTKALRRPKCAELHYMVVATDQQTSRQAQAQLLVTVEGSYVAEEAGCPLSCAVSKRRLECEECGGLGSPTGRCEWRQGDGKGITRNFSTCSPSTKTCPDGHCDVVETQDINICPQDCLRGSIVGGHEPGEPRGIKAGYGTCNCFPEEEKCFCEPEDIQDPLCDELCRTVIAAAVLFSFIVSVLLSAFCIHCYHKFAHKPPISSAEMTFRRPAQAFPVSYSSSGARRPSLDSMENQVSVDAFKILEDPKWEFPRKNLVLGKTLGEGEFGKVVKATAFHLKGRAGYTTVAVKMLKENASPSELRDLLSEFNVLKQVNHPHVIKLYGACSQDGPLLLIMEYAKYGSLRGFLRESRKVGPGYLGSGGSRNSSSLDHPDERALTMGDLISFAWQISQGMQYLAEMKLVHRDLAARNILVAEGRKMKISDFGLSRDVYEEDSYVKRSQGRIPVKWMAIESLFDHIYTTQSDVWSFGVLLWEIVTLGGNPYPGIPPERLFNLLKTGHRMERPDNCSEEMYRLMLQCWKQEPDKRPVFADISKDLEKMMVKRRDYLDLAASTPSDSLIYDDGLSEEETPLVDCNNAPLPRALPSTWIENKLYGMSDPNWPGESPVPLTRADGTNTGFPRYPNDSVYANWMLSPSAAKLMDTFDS"}, "[8]": {"test_system": "FLT3 (human), P36888 [N841I]"}, "[9]": {"biological_target": "MAP2K6 (human) (UniProt P52564)", "sequence (P52564 whole entry, looked up)": "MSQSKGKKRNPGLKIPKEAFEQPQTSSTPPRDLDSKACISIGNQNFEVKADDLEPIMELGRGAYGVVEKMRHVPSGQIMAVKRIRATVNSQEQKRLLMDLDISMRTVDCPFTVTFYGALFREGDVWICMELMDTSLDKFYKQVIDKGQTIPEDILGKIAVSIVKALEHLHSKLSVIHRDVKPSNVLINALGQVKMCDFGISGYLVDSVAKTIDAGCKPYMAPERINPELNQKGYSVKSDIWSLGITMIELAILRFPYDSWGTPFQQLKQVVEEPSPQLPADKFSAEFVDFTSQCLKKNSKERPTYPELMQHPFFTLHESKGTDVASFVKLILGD"}, "[10]": {"biological_target": "PIP4K2B (human) (UniProt P78356)"}, "[11]": {"biological_target": "ACVRL1 (human) (UniProt P37023)"}, "[12]": {"biological_target": "TBK1 (human) (UniProt Q9UHD2)"}, "[13]": {"biological_target": "ERN1 (human) (UniProt O75460)"}, "[14]": {"biological_target": "EIF2AK2 (human) (UniProt P19525)", "sequence (P19525 whole entry, looked up)": "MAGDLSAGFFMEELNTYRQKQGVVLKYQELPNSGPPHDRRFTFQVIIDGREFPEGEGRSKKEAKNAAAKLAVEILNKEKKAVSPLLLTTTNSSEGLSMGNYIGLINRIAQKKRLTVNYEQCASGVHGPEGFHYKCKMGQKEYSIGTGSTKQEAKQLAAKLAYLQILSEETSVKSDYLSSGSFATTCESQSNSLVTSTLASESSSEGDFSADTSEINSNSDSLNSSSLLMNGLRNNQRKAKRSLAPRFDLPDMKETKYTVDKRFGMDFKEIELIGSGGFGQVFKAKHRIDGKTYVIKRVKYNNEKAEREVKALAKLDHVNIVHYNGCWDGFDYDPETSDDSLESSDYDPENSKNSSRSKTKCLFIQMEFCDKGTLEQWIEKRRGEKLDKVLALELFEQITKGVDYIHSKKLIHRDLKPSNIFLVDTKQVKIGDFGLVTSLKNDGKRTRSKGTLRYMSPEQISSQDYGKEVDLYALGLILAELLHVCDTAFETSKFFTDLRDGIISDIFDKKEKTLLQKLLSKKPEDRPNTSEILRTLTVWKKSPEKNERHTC"}, "[15]": {"biological_target": "CDK3 (human) (UniProt Q00526)", "sequence (Q00526 whole entry, looked up)": "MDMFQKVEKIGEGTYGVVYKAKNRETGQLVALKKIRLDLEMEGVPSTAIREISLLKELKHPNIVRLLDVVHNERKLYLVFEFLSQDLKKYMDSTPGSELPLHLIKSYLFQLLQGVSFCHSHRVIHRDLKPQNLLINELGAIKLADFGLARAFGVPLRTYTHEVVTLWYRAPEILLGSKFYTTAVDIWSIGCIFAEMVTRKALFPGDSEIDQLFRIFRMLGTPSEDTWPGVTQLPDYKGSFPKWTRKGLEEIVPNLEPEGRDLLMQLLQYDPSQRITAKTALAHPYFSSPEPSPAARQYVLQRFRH"}, "[16]": {"biological_target": "DYRK2 (human) (UniProt Q92630)"}, "[17]": {"biological_target": "GSK3A (human) (UniProt P49840)"}, "[18]": {"biological_target": "PI4KB (human) (UniProt Q9UBF8)", "sequence (Q9UBF8 whole entry, looked up)": "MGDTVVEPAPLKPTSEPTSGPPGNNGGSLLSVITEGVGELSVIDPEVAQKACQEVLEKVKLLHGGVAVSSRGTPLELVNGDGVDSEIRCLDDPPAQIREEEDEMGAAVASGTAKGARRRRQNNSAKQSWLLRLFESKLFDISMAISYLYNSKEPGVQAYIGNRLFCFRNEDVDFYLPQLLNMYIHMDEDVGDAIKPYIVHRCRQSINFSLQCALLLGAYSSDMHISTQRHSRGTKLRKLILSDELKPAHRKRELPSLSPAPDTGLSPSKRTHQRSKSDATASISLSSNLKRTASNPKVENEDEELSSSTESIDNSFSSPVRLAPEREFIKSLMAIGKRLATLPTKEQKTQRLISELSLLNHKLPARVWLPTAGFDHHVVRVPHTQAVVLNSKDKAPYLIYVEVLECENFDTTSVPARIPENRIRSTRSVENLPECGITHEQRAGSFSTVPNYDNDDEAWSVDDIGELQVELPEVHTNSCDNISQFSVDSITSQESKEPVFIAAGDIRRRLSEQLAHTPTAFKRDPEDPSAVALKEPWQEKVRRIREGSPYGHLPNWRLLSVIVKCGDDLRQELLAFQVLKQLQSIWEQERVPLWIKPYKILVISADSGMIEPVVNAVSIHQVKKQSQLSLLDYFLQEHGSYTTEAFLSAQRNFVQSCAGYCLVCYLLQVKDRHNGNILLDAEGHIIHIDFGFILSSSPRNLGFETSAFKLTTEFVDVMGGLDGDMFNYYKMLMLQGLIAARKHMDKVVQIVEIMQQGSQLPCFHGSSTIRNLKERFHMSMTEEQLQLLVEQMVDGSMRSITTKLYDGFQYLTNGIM"}, "[19]": {"biological_target": "NEK1 (human) (UniProt Q96PY6)"}, "[20]": {"biological_target": "STK38 (human) (UniProt Q15208)"}, "[21]": {"biological_target": "VRK2 (human) (UniProt Q86Y07)"}, "[22]": {"biological_target": "MAPK15 (human) (UniProt Q8TD08)"}, "[23]": {"biological_target": "AKT2 (human) (UniProt P31751)"}, "[24]": {"biological_target": "WEE2 (human) (UniProt P0C1S8)"}, "[25]": {"biological_target": "RAF1 (human) (UniProt P04049)"}, "[26]": {"test_system": "PIK3CA (human), P42336 [H1047L]", "sequence (P42336 whole entry H1047L, looked up)": "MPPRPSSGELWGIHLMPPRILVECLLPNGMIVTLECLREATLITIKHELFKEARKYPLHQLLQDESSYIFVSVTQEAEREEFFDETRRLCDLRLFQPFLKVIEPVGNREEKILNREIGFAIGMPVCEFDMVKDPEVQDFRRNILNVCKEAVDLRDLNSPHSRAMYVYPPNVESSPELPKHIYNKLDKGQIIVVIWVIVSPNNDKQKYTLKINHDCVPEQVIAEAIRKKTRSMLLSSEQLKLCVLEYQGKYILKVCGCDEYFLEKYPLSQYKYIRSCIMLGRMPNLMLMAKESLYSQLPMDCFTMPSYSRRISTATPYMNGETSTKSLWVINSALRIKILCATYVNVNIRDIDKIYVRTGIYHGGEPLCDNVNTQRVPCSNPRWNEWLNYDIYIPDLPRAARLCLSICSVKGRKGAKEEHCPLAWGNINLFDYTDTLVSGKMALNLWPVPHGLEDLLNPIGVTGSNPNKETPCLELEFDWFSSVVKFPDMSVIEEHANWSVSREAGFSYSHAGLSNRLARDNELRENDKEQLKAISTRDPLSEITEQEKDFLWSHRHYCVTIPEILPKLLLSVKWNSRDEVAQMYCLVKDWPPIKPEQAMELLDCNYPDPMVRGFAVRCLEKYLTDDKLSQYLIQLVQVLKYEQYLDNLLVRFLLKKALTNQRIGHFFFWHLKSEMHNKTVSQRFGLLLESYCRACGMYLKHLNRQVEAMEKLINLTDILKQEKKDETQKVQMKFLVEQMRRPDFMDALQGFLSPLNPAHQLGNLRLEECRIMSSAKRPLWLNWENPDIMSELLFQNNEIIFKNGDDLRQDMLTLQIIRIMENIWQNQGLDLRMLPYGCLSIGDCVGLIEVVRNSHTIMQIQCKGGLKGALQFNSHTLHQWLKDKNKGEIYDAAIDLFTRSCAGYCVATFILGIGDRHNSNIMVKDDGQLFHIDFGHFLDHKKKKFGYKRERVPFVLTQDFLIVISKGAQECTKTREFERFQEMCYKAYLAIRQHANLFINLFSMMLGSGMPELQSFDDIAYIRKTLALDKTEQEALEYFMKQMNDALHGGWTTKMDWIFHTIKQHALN"}, "[27]": {"biological_target": "ANKK1 (human) (UniProt Q8NFD2)"}, "[28]": {"biological_target": "PLK1 (human) (UniProt P53350)"}, "[29]": {"test_system": "EIF2AK4 KD2 (human), Q9P2K8 [S808G]"}, "[30]": {"biological_target": "RPS6KA2 KD2 (human) (UniProt Q15349)"}, "[31]": {"biological_target": "YSK4 (human) (UniProt Q56UN5)"}, "[32]": {"biological_target": "DDR2 (human) (UniProt Q16832)"}, "[33]": {"biological_target": "MARK2 (human) (UniProt Q7KZI7)"}, "[34]": {"biological_target": "HUNK (human) (UniProt P57058)"}, "[35]": {"biological_target": "NUAK2 (human) (UniProt Q9H093)"}, "[36]": {"biological_target": "CSNK1A1 (human) (UniProt P48729)"}, "[37]": {"biological_target": "SBK1 (human) (UniProt Q52WX2)"}, "[38]": {"biological_target": "ROS1 (human) (UniProt P08922)"}, "[39]": {"biological_target": "CIT (human) (UniProt O14578)"}, "[40]": {"biological_target": "BMPR1B (human) (UniProt O00238)"}, "[41]": {"biological_target": "STK11 (human) (UniProt Q15831)", "sequence (Q15831 whole entry, looked up)": "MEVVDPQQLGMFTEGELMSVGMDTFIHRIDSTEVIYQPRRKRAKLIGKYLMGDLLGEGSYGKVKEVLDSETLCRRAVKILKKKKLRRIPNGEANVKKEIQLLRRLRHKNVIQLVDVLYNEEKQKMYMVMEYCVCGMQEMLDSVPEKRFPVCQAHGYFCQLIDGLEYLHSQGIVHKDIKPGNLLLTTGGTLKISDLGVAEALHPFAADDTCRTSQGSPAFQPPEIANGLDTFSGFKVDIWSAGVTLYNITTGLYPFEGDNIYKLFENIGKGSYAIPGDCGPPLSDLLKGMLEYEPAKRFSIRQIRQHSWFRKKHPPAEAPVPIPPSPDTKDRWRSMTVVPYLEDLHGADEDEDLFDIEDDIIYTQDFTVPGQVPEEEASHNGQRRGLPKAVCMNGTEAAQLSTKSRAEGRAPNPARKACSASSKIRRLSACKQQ"}, "[42]": {"biological_target": "PHKG2 (human) (UniProt P15735)", "sequence (P15735 whole entry, looked up)": "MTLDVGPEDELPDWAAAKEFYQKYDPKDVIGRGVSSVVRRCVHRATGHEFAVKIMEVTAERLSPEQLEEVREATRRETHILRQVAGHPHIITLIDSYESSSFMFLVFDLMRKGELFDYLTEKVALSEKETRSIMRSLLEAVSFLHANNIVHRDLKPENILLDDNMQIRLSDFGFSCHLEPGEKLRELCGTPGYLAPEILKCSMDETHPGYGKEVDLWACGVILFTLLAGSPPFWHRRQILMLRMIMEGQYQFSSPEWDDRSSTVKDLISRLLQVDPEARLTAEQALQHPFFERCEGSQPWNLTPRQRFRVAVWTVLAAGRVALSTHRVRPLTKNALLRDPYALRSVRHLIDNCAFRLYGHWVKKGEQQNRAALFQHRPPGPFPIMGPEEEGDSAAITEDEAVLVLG"}}}
{"compound": "N#Cc1ccc2ncnc(NCCc3ccc4ccccc4c3)c2c1", "values": [{"measurement": "kinase still bound, per cent of control", "setting": "[1]", "value": 86, "unit": "%"}, {"measurement": "kinase still bound, per cent of control", "setting": "[2]", "value": 98, "unit": "%"}, {"measurement": "kinase still bound, per cent of control", "setting": "[3]", "value": 95, "unit": "%"}, {"measurement": "kinase still bound, per cent of control", "setting": "[4]", "value": 78, "unit": "%"}, {"measurement": "kinase still bound, per cent of control", "setting": "[5]", "value": 75, "unit": "%"}, {"measurement": "kinase still bound, per cent of control", "setting": "[6]", "value": 100, "unit": "%"}, {"measurement": "kinase still bound, per cent of control", "setting": "[7]", "value": 100, "unit": "%"}, {"measurement": "kinase still bound, per cent of control", "setting": "[8]", "value": 95, "unit": "%"}, {"measurement": "kinase still bound, per cent of control", "setting": "[9]", "value": 100, "unit": "%"}, {"measurement": "kinase still bound, per cent of control", "setting": "[10]", "value": 100, "unit": "%"}, {"measurement": "kinase still bound, per cent of control", "setting": "[11]", "value": 100, "unit": "%"}, {"measurement": "kinase still bound, per cent of control", "setting": "[12]", "value": 100, "unit": "%"}, {"measurement": "kinase still bound, per cent of control", "setting": "[13]", "value": 100, "unit": "%"}, {"measurement": "kinase still bound, per cent of control", "setting": "[14]", "value": 72, "unit": "%"}, {"measurement": "kinase still bound, per cent of control", "setting": "[15]", "value": 100, "unit": "%"}, {"measurement": "kinase still bound, per cent of control", "setting": "[16]", "value": 85, "unit": "%"}, {"measurement": "kinase still bound, per cent of control", "setting": "[17]", "value": 100, "unit": "%"}, {"measurement": "kinase still bound, per cent of control", "setting": "[18]", "value": 95, "unit": "%"}, {"measurement": "kinase still bound, per cent of control", "setting": "[19]", "value": 100, "unit": "%"}, {"measurement": "kinase still bound, per cent of control", "setting": "[20]", "value": 100, "unit": "%"}, {"measurement": "kinase still bound, per cent of control", "setting": "[21]", "value": 100, "unit": "%"}, {"measurement": "kinase still bound, per cent of control", "setting": "[22]", "value": 84, "unit": "%"}, {"measurement": "kinase still bound, per cent of control", "setting": "[23]", "value": 100, "unit": "%"}, {"measurement": "kinase still bound, per cent of control", "setting": "[24]", "value": 65, "unit": "%"}, {"measurement": "kinase still bound, per cent of control", "setting": "[25]", "value": 100, "unit": "%"}, {"measurement": "kinase still bound, per cent of control", "setting": "[26]", "value": 100, "unit": "%"}, {"measurement": "kinase still bound, per cent of control", "setting": "[27]", "value": 100, "unit": "%"}, {"measurement": "kinase still bound, per cent of control", "setting": "[28]", "value": 88, "unit": "%"}, {"measurement": "kinase still bound, per cent of control", "setting": "[29]", "value": 80, "unit": "%"}, {"measurement": "kinase still bound, per cent of control", "setting": "[30]", "value": 85, "unit": "%"}, {"measurement": "kinase still bound, per cent of control", "setting": "[31]", "value": 86, "unit": "%"}, {"measurement": "kinase still bound, per cent of control", "setting": "[32]", "value": 100, "unit": "%"}, {"measurement": "kinase still bound, per cent of control", "setting": "[33]", "value": 94, "unit": "%"}, {"measurement": "kinase still bound, per cent of control", "setting": "[34]", "value": 100, "unit": "%"}, {"measurement": "kinase still bound, per cent of control", "setting": "[35]", "value": 77, "unit": "%"}, {"measurement": "kinase still bound, per cent of control", "setting": "[36]", "value": 87, "unit": "%"}, {"measurement": "kinase still bound, per cent of control", "setting": "[37]", "value": 100, "unit": "%"}, {"measurement": "kinase still bound, per cent of control", "setting": "[38]", "value": 95, "unit": "%"}, {"measurement": "kinase still bound, per cent of control", "setting": "[39]", "value": 91, "unit": "%"}, {"measurement": "kinase still bound, per cent of control", "setting": "[40]", "value": 90, "unit": "%"}, {"measurement": "kinase still bound, per cent of control", "setting": "[41]", "value": 100, "unit": "%"}, {"measurement": "kinase still bound, per cent of control", "setting": "[42]", "value": 100, "unit": "%"}]}
